Measured values as given in patent US9096492B2, “Hydrated N-fullerene amino acids, method for producing the latter, and pharmaceutical compositions on the basis thereof” (priority 2011, dated 2015).
“And” between values parts separate entries of the source, which are not always exact repeats. Equal values may be shown once. Read-outs that look alike come from different tables or passages of the source.

Assays:
[1] = tested on: human lymphoblastoid cells; assay: Cytotoxicity in human lymphoblastoid cells model
[2] = Acute toxicity in rats after a single intramuscular injection; type: in vivo, Wistar rats
[3] = tested on: type 1 human immunodeficiency virus; assay: Antiviral activity on HIV-1 infected human cell model (cell staining, CPE, syncytium formation); details: for CPE/syncytia (+): number of pluses of the four-plus system; for Cell survival rate, % / Number of cells × 10^3/mL: HIV-1 infected cells
[4] = rat, in vivo
[5] = rat, in vivo; remark: listed apart in the source
[6] = Chronic toxicity in rats: autopsy and weight coefficients of viscera; details: any of the tested doses; after the end of administration
[7] = tested on: ascites Ehrlich carcinoma cells; assay: Apoptosis in ascites Ehrlich carcinoma cells of treated mice (cytofluorimetric analysis); type: in vivo
[8] = tested on: A/Aichi/2/69 (H3N2) influenza virus; assay: Induced influenza pneumonia in mice; details: for Average lifetime (days) / Death rate (%) / Percent death protection (%) / Survival (survivors/total): observation day 16
[9] = ascites cells having large sizes and granularity (tumor cells)
[10] = ascites cells of moderate size and granularity
[11] = intraperitoneally 100 mg/kg/day

N-fullerene tris(δ-aminocaproic acid) hydrate [Agent 1]
Cell survival rate, % ([1]; 0.5 mcg/mL): 95%
Number of cells × 10^3/mL ([1]; 0.5 mcg/mL): 633 10^3/mL
Cell survival rate, % ([1]; 1.0 mcg/mL): 94%
Number of cells × 10^3/mL ([1]; 1.0 mcg/mL): 599 10^3/mL
Cell survival rate, % ([1]; 5.0 mcg/mL): 96%
Number of cells × 10^3/mL ([1]; 5.0 mcg/mL): 530 10^3/mL
Cell survival rate, % ([1]; 10.0 mcg/mL): 92%
Number of cells × 10^3/mL ([1]; 10.0 mcg/mL): 500 10^3/mL
Cell survival rate, % ([1]; 100 mcg/mL): 70%
Number of cells × 10^3/mL ([1]; 100 mcg/mL): 433 10^3/mL
death during the 14-day observation period ([2]; 5, 50 and 500 mg/kg single i.m.): No death occurred
Animal body weight (M ± SD) ([2]; females, 5 mg/kg single intramuscular, day 0): 163 ± 15.5 g
Animal body weight (M ± SD) ([2]; females, 50 mg/kg single intramuscular, day 0): 165 ± 17.5 g
Animal body weight (M ± SD) ([2]; females, 500 mg/kg single intramuscular, day 0): 160 ± 8.1 g
Animal body weight (M ± SD) ([2]; females, 500 mg/kg single intramuscular, day 7): 169 ± 8.0 g
Animal body weight (M ± SD) ([2]; males, 5 mg/kg single intramuscular, day 7): 228 ± 18.1 g
Animal body weight (M ± SD) ([2]; males, 5 mg/kg single intramuscular, day 14): 276 ± 17.8 g
Animal body weight (M ± SD) ([2]; males, 50 mg/kg single intramuscular, day 7): 228 ± 17.0 g
Animal body weight (M ± SD) ([2]; males, 50 mg/kg single intramuscular, day 14): 279 ± 18.3 g
Animal body weight (M ± SD) ([2]; males, 500 mg/kg single intramuscular, day 14): 258 ± 24.1 g
LD50 ([2]; single intramuscular administration, exceeds the maximal tested dose): > 500 mg/kg
CPE/syncytia (+) ([3]; 0.5 mcg/mL): 4.0 +
CPE/syncytia (+) ([3]; 1.0 mcg/mL): 2.0 +
CPE/syncytia (+) ([3]; 5.0 mcg/mL): 0 +
CPE/syncytia (+) ([3]; 10 mcg/mL): 0 +
Cell survival rate, % ([3]; 0.5 mcg/mL): 27%
Number of cells × 10^3/mL ([3]; 0.5 mcg/mL): 133.2 10^3/mL
Cell survival rate, % ([3]; 1.0 mcg/mL): 75%
Number of cells × 10^3/mL ([3]; 1.0 mcg/mL): 320.4 10^3/mL
Cell survival rate, % ([3]; 5.0 mcg/mL): 92%
Number of cells × 10^3/mL ([3]; 5.0 mcg/mL): 480.0 10^3/mL
Cell survival rate, % ([3]; 10 mcg/mL): 95%
Number of cells × 10^3/mL ([3]; 10 mcg/mL): 579.3 10^3/mL
EC50 (50% effective concentration) ([3]; HIV-1 infected human cells): 5.0 µg/mL
Alkali hosphatase, Units/L ([4]; 3 mg/kg): 143 ± 47 Units/L
Cholesterol ([4]; 3 mg/kg): 4.17 ± 0.68 mmol/L
Glucose ([4]; 3 mg/kg): 7.64 ± 1.56 mmol/L
Total proten ([4]; 3 mg/kg): 71.12 ± 6.66 g/L
Alkali hosphatase, Units/L ([4]; 9 mg/kg): 159 ± 28 Units/L
Glucose ([4]; 9 mg/kg): 7.18 ± 0.80 mmol/L
Total protein ([4]; 9 mg/kg): 68.94 ± 2.97 g/L
Total proten ([4]; 9 mg/kg): 78.48 ± 8.94 g/L
Alkali hosphatase, Units/L ([4]; 20 mg/kg): 248 ± 107 Units/L
Total proten ([4]; 20 mg/kg): 72.76 ± 8.11 g/L
Urea ([4]; 20 mg/kg): 9.22 ± 1.56 mmol/L
Glucose: number of animals with values going beyond the limits ([5]; 3 mg/kg): 0
Leukocytes: number of animals with values going beyond the limits ([5]; 3 mg/kg): 3
Protein: number of animals with values going beyond the limits ([5]; 9 mg/kg): 3
Bilirubin: number of animals with values going beyond the limits ([5]; 20 mg/kg): 0
Erythrocytes: number of animals with values going beyond the limits ([5]; 20 mg/kg): 5
Glucose: number of animals with values going beyond the limits ([5]; 20 mg/kg): 0
Nitrites: number of animals with values going beyond the limits ([5]; 20 mg/kg): 1
autopsy finding at the injection site (skeletal muscles) [6]: a brownish color of muscle tissue, fascia, and fat layers was noticed
AnV^+ 7AAD^+ (late apoptosis) [7, 9]: 69.5 ± 5.8%
AnV^+ 7AAD^− (early apoptosis) [7, 9]: 0.1 ± 0.1%
AnV^−7AAD^− (living cells) [7, 9]: 0.3 ± 0.1%
AnV^−7AAD^+ (necrosis) ([7]; ascites cells having large sizes and granularity (tumor cells), hydrate): 30.2% and 30.2 ± 5.9%
Percent amount of cells with the phenotype AnV^+ 7AAD^+ (late apoptosis) [7, 10]: 4.2 ± 2.4%
Percent amount of cells with the phenotype AnV^+ 7AAD^− early apoptosis [7, 10]: 31.1 ± 10.4%
Percent amount of cells with the phenotype AnV^−7AAD^+ (necrosis) [7, 10]: 0.4 ± 0.4%
Percent amount of cells with the phenotype AnV^−7AAD^− (living cells) [7, 10]: 6.1 ± 6.2%
Percent body weight change ([8]; intramuscularly 50 mg/kg/day, day 1 post infection): +9%
Percent body weight change ([8]; intramuscularly 50 mg/kg/day, day 2 post infection): +14%
Percent body weight change ([8]; intramuscularly 50 mg/kg/day, day 3 post infection): +21%
Percent body weight change ([8]; intramuscularly 50 mg/kg/day, day 4 post infection): +26%
Percent body weight change ([8]; intramuscularly 50 mg/kg/day, day 5 post infection): +30%
Percent body weight change ([8]; intramuscularly 50 mg/kg/day, day 7 post infection): +27%
Percent body weight change ([8]; intramuscularly 50 mg/kg/day, day 9 post infection): +38%
Percent body weight change ([8]; intramuscularly 50 mg/kg/day, day 11 post infection): +64%
Percent body weight change ([8]; intramuscularly 50 mg/kg/day, day 13 post infection): +74%
Average lifetime (days) ([8]; intramuscularly 50 mg/kg/day): 12.4 (1-7 d., 1-9 d., 2-11 d) days
Death rate (%) ([8]; intramuscularly 50 mg/kg/day): 40%
Percent death protection (%) ([8]; intramuscularly 50 mg/kg/day): 50%
Survival (survivors/total) ([8]; intramuscularly 50 mg/kg/day): 6/10
Percent body weight change ([8]; intramuscularly 100 mg/kg/day, day 1 post infection): +13%
Percent body weight change ([8]; intramuscularly 100 mg/kg/day, day 2 post infection): +17%
Percent body weight change ([8]; intramuscularly 100 mg/kg/day, day 3 post infection): +23%
Percent body weight change ([8]; intramuscularly 100 mg/kg/day, day 4 post infection): +28%
Percent body weight change ([8]; intramuscularly 100 mg/kg/day, day 5 post infection): +31%
Percent body weight change ([8]; intramuscularly 100 mg/kg/day, day 7 post infection): +39%
Percent body weight change ([8]; intramuscularly 100 mg/kg/day, day 9 post infection): +65%
Percent body weight change ([8]; intramuscularly 100 mg/kg/day, day 11 post infection): +7%
Percent body weight change ([8]; intramuscularly 100 mg/kg/day, day 13 post infection): +82%
Average lifetime (days) ([8]; intramuscularly 100 mg/kg/day): 13.5 (1-8 d, 1-9 d) days
Death rate (%) ([8]; intramuscularly 100 mg/kg/day): 20%
Percent death protection (%) ([8]; intramuscularly 100 mg/kg/day): 70%
Survival (survivors/total) ([8]; intramuscularly 100 mg/kg/day): 8/10
Percent body weight change ([8]; intramuscularly 200 mg/kg/day, day 1 post infection): +11%
Percent body weight change ([8]; intramuscularly 200 mg/kg/day, day 2 post infection): +20%
Percent body weight change ([8]; intramuscularly 200 mg/kg/day, day 3 post infection): +26%
Percent body weight change ([8]; intramuscularly 200 mg/kg/day, day 4 post infection): +35%
Percent body weight change ([8]; intramuscularly 200 mg/kg/day, day 5 post infection): +39%
Percent body weight change ([8]; intramuscularly 200 mg/kg/day, day 7 post infection): +43%
Percent body weight change ([8]; intramuscularly 200 mg/kg/day, day 9 post infection): +51%
Percent body weight change ([8]; intramuscularly 200 mg/kg/day, day 11 post infection): +62%
Percent body weight change ([8]; intramuscularly 200 mg/kg/day, day 13 post infection): +70%
Average lifetime (days) ([8]; intramuscularly 200 mg/kg/day): 14.4 (1-10 d) days
Death rate (%) ([8]; intramuscularly 200 mg/kg/day): 10%
Percent death protection (%) ([8]; intramuscularly 200 mg/kg/day): 80%
Survival (survivors/total) ([8]; intramuscularly 200 mg/kg/day): 9/10
tolerability in infected mice ([8]; intraperitoneal, 200 mg/kg/day): toxic
Percent body weight change ([8]; intraperitoneally 50 mg/kg/day, day 1 post infection): +11%
Percent body weight change ([8]; intraperitoneally 50 mg/kg/day, day 2 post infection): +17%
Percent body weight change ([8]; intraperitoneally 50 mg/kg/day, day 3 post infection): +22%
Percent body weight change ([8]; intraperitoneally 50 mg/kg/day, day 4 post infection): +25%
Percent body weight change ([8]; intraperitoneally 50 mg/kg/day, day 5 post infection): +28%
Percent body weight change ([8]; intraperitoneally 50 mg/kg/day, day 7 post infection): +35%
Percent body weight change ([8]; intraperitoneally 50 mg/kg/day, day 9 post infection): +41%
Percent body weight change ([8]; intraperitoneally 50 mg/kg/day, day 11 post infection): +67%
Percent body weight change ([8]; intraperitoneally 50 mg/kg/day, day 13 post infection): +77%
Average lifetime (days) ([8]; intraperitoneally 50 mg/kg/day): 11.5 (1-5 d., 1-7 d., 3-11 d.) days
Death rate (%) ([8]; intraperitoneally 50 mg/kg/day): 50%
Percent death protection (%) ([8]; intraperitoneally 50 mg/kg/day): 40%
Survival (survivors/total) ([8]; intraperitoneally 50 mg/kg/day): 5/10
Percent body weight change ([8]; intraperitoneally 100 mg/kg/day, day 1 post infection): +9%
Percent body weight change ([8]; intraperitoneally 100 mg/kg/day, day 2 post infection): +15%
Percent body weight change ([8]; intraperitoneally 100 mg/kg/day, day 3 post infection): +19%
Percent body weight change ([8]; intraperitoneally 100 mg/kg/day, day 4 post infection): +21%
Percent body weight change ([8]; intraperitoneally 100 mg/kg/day, day 5 post infection): +21%
Percent body weight change ([8]; intraperitoneally 100 mg/kg/day, day 7 post infection): +27%
Percent body weight change ([8]; intraperitoneally 100 mg/kg/day, day 9 post infection): +37%
Percent body weight change ([8]; intraperitoneally 100 mg/kg/day, day 11 post infection): +50%
Percent body weight change ([8]; intraperitoneally 100 mg/kg/day, day 13 post infection): +82%
Average lifetime (days) [8, 11]: 11.0 (3-7 d., 1-8 d., 1-11 d) days
Death rate (%) [8, 11]: 50%
Percent death protection (%) [8, 11]: 40%
Survival (survivors/total) [8, 11]: 5/10
Percent body weight change ([8]; orally 100 mg/kg/day, day 1 post infection): +12%
Percent body weight change ([8]; orally 100 mg/kg/day, day 2 post infection): +17%
Percent body weight change ([8]; orally 100 mg/kg/day, day 3 post infection): +23%
Percent body weight change ([8]; orally 100 mg/kg/day, day 4 post infection): +25%
Percent body weight change ([8]; orally 100 mg/kg/day, day 5 post infection): +24%
Percent body weight change ([8]; orally 100 mg/kg/day, day 7 post infection): +21%
Percent body weight change ([8]; orally 100 mg/kg/day, day 9 post infection): +23%
Percent body weight change ([8]; orally 100 mg/kg/day, day 11 post infection): +34%
Percent body weight change ([8]; orally 100 mg/kg/day, day 13 post infection): +44%
Average lifetime (days) ([8]; orally 100 mg/kg/day): 10.4 (2-7 d., 1-9 d., 1-10 d) days
Death rate (%) ([8]; orally 100 mg/kg/day): 50%
Percent death protection (%) ([8]; orally 100 mg/kg/day): 40%
Survival (survivors/total) ([8]; orally 100 mg/kg/day): 5/10
Percent body weight change ([8]; orally 200 mg/kg/day, day 1 post infection): +15%
Percent body weight change ([8]; orally 200 mg/kg/day, day 2 post infection): +20%
Percent body weight change ([8]; orally 200 mg/kg/day, day 3 post infection): +23%
Percent body weight change ([8]; orally 200 mg/kg/day, day 4 post infection): +25%
Percent body weight change ([8]; orally 200 mg/kg/day, day 5 post infection): +24%
Percent body weight change ([8]; orally 200 mg/kg/day, day 7 post infection): +22%
Percent body weight change ([8]; orally 200 mg/kg/day, day 9 post infection): +25%
Percent body weight change ([8]; orally 200 mg/kg/day, day 11 post infection): +45%
Percent body weight change ([8]; orally 200 mg/kg/day, day 13 post infection): +57%
Average lifetime (days) ([8]; orally 200 mg/kg/day): 13.0 (1-7 d., 1-10 d., 1-11 d) days
Death rate (%) ([8]; orally 200 mg/kg/day): 30%
Percent death protection (%) ([8]; orally 200 mg/kg/day): 60%
Survival (survivors/total) ([8]; orally 200 mg/kg/day): 7/10
